ChEMBL document CHEMBL1159201, “Microbial biotransformation of veratramine” (J Nat Prod, 1998)
Values after ≈ are worked out from the molar mass of the structure shown.

Experiments:
Vero = assay: Cytotoxicity against african green monkey Vero cells; assay type: cell-based; conditions: chlorocebus sabaeus
Plasmodium falciparum = assay: Antiplasmodial activity against Plasmodium falciparum W2; assay type: functional, organism-based

## Cc1c([C@H](C)[C@@H]2NC[C@@H](C)C[C@H]2O)ccc2c1C[C@H]1[C@H]2CCC2=CC(=O)CC[C@@]21C
Vero
  Activity: Non-toxic

## Cc1c([C@H](C)[C@@H]2NC[C@@H](C)C[C@H]2O)ccc2c1C[C@H]1[C@H]2CCC2=CC(=O)C=C[C@@]21C
Plasmodium falciparum
  IC50: 3.6 µg/mL (≈ 8.88 µM)
Vero
  Activity: Non-toxic

## Cc1c([C@H](C)[C@@H]2NC[C@@H](C)C[C@H]2O)ccc2c1C[C@H]1[C@H]2CC[C@H]2CC(=O)CC[C@@]21C [DIHYDROVERATRAM-3-ONE]
Vero
  Activity: Non-toxic

## Cc1c([C@H](C)[C@@H]2NC[C@@H](C)C[C@H]2O)ccc2c1C[C@H]1[C@H]2CC=C2C[C@@H](O)CC[C@@]21C [VERATRAMINE]
Vero
  Activity: Non-toxic
